From US10829481B2, “Benzimidazole derivatives as modulators of ROR-gamma” (Vitae Pharmaceuticals, LLC, priority 2016, dated 2020) come the findings set out here.

full-length RORγt in Jurkat cells, sequence (P51449 other isoform, or with tags, fused parts or gaps): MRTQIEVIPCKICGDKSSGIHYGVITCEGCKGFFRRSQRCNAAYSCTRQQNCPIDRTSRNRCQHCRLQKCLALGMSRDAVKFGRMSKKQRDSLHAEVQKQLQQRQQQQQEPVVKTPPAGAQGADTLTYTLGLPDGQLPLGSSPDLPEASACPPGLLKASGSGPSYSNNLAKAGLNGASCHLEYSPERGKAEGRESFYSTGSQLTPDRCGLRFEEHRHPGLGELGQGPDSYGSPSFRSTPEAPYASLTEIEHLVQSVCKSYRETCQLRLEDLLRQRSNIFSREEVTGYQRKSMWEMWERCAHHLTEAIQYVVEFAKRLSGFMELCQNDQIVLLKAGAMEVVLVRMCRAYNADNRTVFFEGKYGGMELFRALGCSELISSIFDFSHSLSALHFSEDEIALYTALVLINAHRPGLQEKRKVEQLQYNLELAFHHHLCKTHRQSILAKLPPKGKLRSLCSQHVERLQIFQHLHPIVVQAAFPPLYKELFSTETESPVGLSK

The target of one test is full-length RORγt in Jurkat cells (Homo sapiens (Human), UniProt P51449). Description: RORγt 5×RORE Assay in Jurkat Cells (Assay 2). The format is cell-based. The conditions noted are these: 5×RORE Nanoluc luciferase reporter. As to the method:
RORγt 5×RORE Assay in Jurkat Cells (Assay 2)
Compounds described herein were tested for RORγ inverse agonist activity in a cell-based, transcriptional activity assay. Secreted Nanoluc® luciferase was used as a reporter for transcriptional activity of the full-length RORγt in Jurkat cells (ATCC, Cat. #TIB-152). […] (Promega, Cat. #N1021) using KpnI and HindIII restriction sites. […] After 5-6 hrs of incubation at 37° C./5% CO2, the cells were collected, resuspended in phenol-red free RPMI media containing 10% (v/v) delipidated FBS (Hyclone, Cat. #SH30855.03) and dispensed into 96-well clear bottom tissue culture plates (CoStar, Cat. #3603), at 80,000 cells per well. Tested compounds were added to the cells in the same media (final concentration of DMSO was 0.1% (v/v)), and the plates were incubated at 37° C./5% CO2 for 16-18 hrs. Luciferase activity in the conditioned supernatants was determined with NanoGlo® assay reagents (Promega, Cat. #N1130).
Broadly, the IC50 is the concentration at which inhibition is half-maximal. In the case of `CCS(=O)(=O)c1ccc(CNC(=O)c2ccc3c(c2)nc(C)n3Cc2cccc3c2OC(F)(F)O3)cc1` [I-32, 1-((2,2-difluorobenzo[d][1,3]dioxol-4-yl)methyl)-N-(4-(ethylsulfonyl)benzyl)-2-methyl-1H-benzo[d]imidazole-5-carboxamide], the IC50 is greater than 1 µM.

In the case of `CCS(=O)(=O)c1ccc([C@H](CO)NC(=O)c2ccc3c(c2)nc(C2CC2)n3Cc2cccc3c2OC(F)(F)O3)cc1` [I-12, (R)-2-cyclopropyl-1-((2,2-difluorobenzo[d][1,3]dioxol-4-yl)methyl)-N-(1-(4-(ethylsulfonyl)phenyl)-2-hydroxyethyl)-1H-benzo[d]imidazole-5-carboxamide], the IC50 was less than 0.1 µM.

With `CCS(=O)(=O)c1ccc(CNC(=O)c2ccc3c(c2)nc(C(F)(F)F)n3Cc2cccc3c2OC(F)(F)O3)[n+]([O-])c1` [I-161, 2-((1-((2,2-difluorobenzo[d][1,3]dioxol-4-yl)methyl)-2-(trifluoromethyl)-1H-benzo[d]imidazole-5-carboxamido)methyl)-5-(ethylsulfonyl)pyridine 1-oxide], the half-inhibitory concentration (IC50) was less than 0.1 µM.

As to `CCS(=O)(=O)c1ccc([C@H](CO)NC(=O)c2ccc3c(c2)nc(C2(F)CCC2)n3Cc2cccc3c2OC(F)(F)O3)cc1` [I-19, (R)-1-((2,2-difluorobenzo[d][1,3]dioxol-4-yl)methyl)-N-(1-(4-(ethylsulfonyl)phenyl)-2-hydroxyethyl)-2-(1-fluorocyclobutyl)-1H-benzo[d]imidazole-5-carboxamide], the IC50 is less than 0.1 µM.

For another test, the target named is recombinant RORγ Ligand Binding Domain (LBD) protein (Homo sapiens (Human), UniProt P51449). Description: Radio-Ligand RORγ Binding Assay (Assay 1). As to conditions: competition with 25-hydroxy [26,27-3H]-cholesterol, SPA. The procedure: Radio-Ligand RORγ Binding Assay (Assay 1)
recombinant RORγ Ligand Binding Domain (LBD) protein, sequence (P51449 269-508): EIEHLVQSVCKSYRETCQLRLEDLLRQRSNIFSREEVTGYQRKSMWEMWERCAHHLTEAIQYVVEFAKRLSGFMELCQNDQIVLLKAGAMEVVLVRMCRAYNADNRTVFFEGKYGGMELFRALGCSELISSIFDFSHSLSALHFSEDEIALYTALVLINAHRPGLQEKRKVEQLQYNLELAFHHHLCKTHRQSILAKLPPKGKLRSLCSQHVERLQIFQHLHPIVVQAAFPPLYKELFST
Compounds described herein were tested for ability to bind to RORγ in a cell-free competition assay with commercially available radio-ligand (RL), 25-hydroxy [26,27-^3H]-cholesterol (PerkinElmer, Cat. #NET674250UC), for a ligand binding site on a recombinant RORγ Ligand Binding Domain (LBD) protein expressed as a 6×His-Glutathione-S-Transferase (GST) fusion. The assay was performed in 96-well SPA plates (PerkinElmer, Cat. #1450-401) in 50 mM HEPES buffer, pH 7.4, containing 150 mM NaCl, 5 mM MgCl2, 10% (v/v) glycerol, 2 mM CHAPS, 0.5 mM β-octylglucopyranoside and 5 mM DTT. Tested compounds were dissolved in DMSO, and semi-log (3.162×) serial dilutions of the compounds were prepared in the same solvent. Two μL of the DMSO solutions were mixed with 28 μL of 8.6 nM 25-hydroxy [26,27-^3H]-cholesterol and 50 μL of 24 nM RORγ LBD. The plate was shaken at 700 rpm for 20 min and incubated for 10 min at rt, after which 40 μL of poly-Lys YSi SPA beads (PerkinElmer, Cat. #RPNQ0010) were added to achieve […] of the beads per well. The plate was incubated on an orbital shaker for 20 min and then for 10 min without agitation at rt. SPA signal for tritium beta radiation was registered on PerkinElmer Microbeta plate reader. […] The percent inhibition vs. concentration data were fit into a four-parameter model, and IC50 values were calculated from the fit as the concentrations corresponding to the inflection points on the dose-response curves. Inhibitory constants (Ki) were calculated using the following equation, where [RL] is the concentration in the assay and KD is a dissociation constant of 25-hydroxy [26,27-^3H]-cholesterol: […]
The Ki is a measure of affinity in units of concentration, obtained from inhibition or displacement. `CCS(=O)(=O)c1ccc(CNC(=O)c2ccc3c(c2)nc(C)n3Cc2cccc3c2OC(F)(F)O3)cc1` [I-32, 1-((2,2-difluorobenzo[d][1,3]dioxol-4-yl)methyl)-N-(4-(ethylsulfonyl)benzyl)-2-methyl-1H-benzo[d]imidazole-5-carboxamide]: the Ki is less than 0.1 µM.

`CCS(=O)(=O)c1ccc(CNC(=O)c2ccc3c(c2)nc(C2CC2)n3C[C@H]2CCCN2CC(F)(F)F)cc1` [I-157, (R)-2-cyclopropyl-N-(4-(ethylsulfonyl)benzyl)-1-((1-(2,2,2-trifluoroethyl)pyrrolidin-2-yl)methyl)-1H-benzo[d]imidazole-5-carboxamide]: the Ki was greater than 1 µM.

For `CCS(=O)(=O)c1ccc(CNC(=O)c2ccc3c(c2)nc(C2CC2)n3Cc2cnn(CC(F)(F)F)c2)cc1` [I-111, 2-cyclopropyl-N-(4-(ethylsulfonyl)benzyl)-1-((1-(2,2,2-trifluoroethyl)-1H-pyrazol-4-yl)methyl)-1H-benzo[d]imidazole-5-carboxamide], the Ki is greater than 1 µM.

Take `CCOC(=O)Cc1ccc(CC(=O)Nc2ccc3c(c2)nc(C(F)(F)F)n3Cc2cccc3c2OC(F)(F)O3)cc1` [I-7, ethyl 2-(4-(2-((1-((2,2-difluorobenzo[d][1,3]dioxol-4-yl)methyl)-2-(trifluoromethyl)-1H-benzo[d]imidazol-5-yl)amino)-2-oxoethyl)phenyl)acetate]: the inhibitory constant (Ki) is 0.1 to 1 µM.

As to `CCS(=O)(=O)c1ccc(CNC(=O)c2ccc3c(c2)nc(C2CC2)n3Cc2cccc(C#N)c2)cc1` [I-112, 1-(3-cyanobenzyl)-2-cyclopropyl-N-(4-(ethylsulfonyl)benzyl)-1H-benzo[d]imidazole-5-carboxamide], the inhibitory constant (Ki) lay within 0.1 to 1 µM.

Take `CCS(=O)(=O)c1ccc(CNC(=O)c2ccc3c(c2)nc(C2CC2)n3C[C@H]2CCN(c3ncc(F)cn3)C2)cc1` [I-159, (R)-2-cyclopropyl-N-(4-(ethylsulfonyl)benzyl)-1-((1-(5-fluoropyrimidin-2-yl)pyrrolidin-3-yl)methyl)-1H-benzo[d]imidazole-5-carboxamide]: the Ki was greater than 1 µM.

`CCS(=O)(=O)c1ccc(CNC(=O)c2ccc3c(c2)nc(C(F)(F)F)n3Cc2cccn(C)c2=O)cc1` [I-146, N-(4-(ethylsulfonyl)benzyl)-1-((1-methyl-2-oxo-1,2-dihydropyridin-3-yl)methyl)-2-(trifluoromethyl)-1H-benzo[d]imidazole-5-carboxamide]: the Ki lay within 0.1 to 1 µM.

As for `CCS(=O)(=O)c1ccc(CNC(=O)c2ccc3c(c2)nc(C2CC2)n3C[C@H]2CCN(C(=O)OC(C)(C)C)C2)cc1` [I-107, tert-butyl (R)-3-((2-cyclopropyl-5-((4-(ethylsulfonyl)benzyl)carbamoyl)-1H-benzo[d]imidazol-1-yl)methyl)pyrrolidine-1-carboxylate], the Ki is greater than 1 µM.

For the molecule `CCS(=O)(=O)c1ccc(CNC(=O)c2ccc3c(c2)nc(C2CC2)n3C[C@H]2CCCN2C(=O)OC(C)(C)C)cc1` [I-108, tert-butyl (R)-2-((2-cyclopropyl-5-((4-(ethylsulfonyl)benzyl)carbamoyl)-1H-benzo[d]imidazol-1-yl)methyl)pyrrolidine-1-carboxylate], the Ki is greater than 1 µM.

In the case of `CCS(=O)(=O)c1ccc(C(CO)(CO)NC(=O)c2ccc3c(c2)nc(C(F)(F)F)n3Cc2cccc3c2OC(F)(F)O3)cc1` [I-174, 1-((2,2-difluorobenzo[d][1,3]dioxol-4-yl)methyl)-N-(2-(4-(ethylsulfonyl)phenyl)-1,3-dihydroxypropan-2-yl)-2-(trifluoromethyl)-1H-benzo[d]imidazole-5-carboxamide], the Ki was less than 0.1 µM.

Regarding `CCS(=O)(=O)c1ccc([C@@H](CO)NC(=O)c2ccc3c(c2)nc(C2CC2)n3Cc2cccc3c2OC(F)(F)O3)nc1` [I-133.2, (S)-2-cyclopropyl-1-((2,2-difluorobenzo[d][1,3]dioxol-4-yl)methyl)-N-(1-(5-(ethylsulfonyl)pyridin-2-yl)-2-hydroxyethyl)-1H-benzo[d]imidazole-5-carboxamide], the Ki was 0.1 to 1 µM.

Turning to `CN1CCN(S(C)(=O)=O)CCC1CNC(=O)c1ccc2c(c1)nc(C(F)(F)F)n2Cc1cccc2c1OC(F)(F)O2` (centres unmarked) [I-171, 1-((2,2-difluorobenzo[d][1,3]dioxol-4-yl)methyl)-N-((4-methyl-1-(methylsulfonyl)-1,4-diazepan-5-yl)methyl)-2-(trifluoromethyl)-1H-benzo[d]imidazole-5-carboxamide], the inhibition constant Ki was in the range of 0.1 to 1 µM.

For the molecule “2-cyclopropyl-N-(4-(ethylsulfonyl)benzyl)-1-((6-oxo-1-(2,2,2-trifluoroethyl)-1,6-dihydropyridin-3-yl)methyl)-1H-benzo[d]imidazole-5-carboxamide [I-117]”, the Ki was greater than 1 µM.

On to `CCS(=O)(=O)c1ccc(CNC(=O)c2ccc3c(c2)nc(C(F)(F)F)n3CC2CCN(C(=O)OC(C)(C)C)CC2)cc1` [I-145, tert-butyl 4-((5-((4-(ethylsulfonyl)benzyl)carbamoyl)-2-(trifluoromethyl)-1H-benzo[d]imidazol-1-yl)methyl)piperidine-1-carboxylate], for which the inhibition constant Ki lay within 0.1 to 1 µM.

`CCS(=O)(=O)c1ccc(CNC(=O)c2ccc3c(c2)nc([C@H]2C[C@H]2C#N)n3Cc2cccc3c2OC(F)(F)O3)cc1` [I-56, 2-((1S,2R)-2-cyanocyclopropyl)-1-((2,2-difluorobenzo[d][1,3]dioxol-4-yl)methyl)-N-(4-(ethylsulfonyl)benzyl)-1H-benzo[d]imidazole-5-carboxamide]: the inhibition constant (Ki) lay within 0.1 to 1 µM.

For the molecule `CCS(=O)(=O)c1ccc(CNC(=O)c2ccc3c(c2)nc(C2CC2)n3C[C@H]2CCN(CC(F)(F)F)C2)cc1` [I-156, (S)-2-cyclopropyl-N-(4-(ethylsulfonyl)benzyl)-1-((1-(2,2,2-trifluoroethyl)pyrrolidin-3-yl)methyl)-1H-benzo[d]imidazole-5-carboxamide], the inhibition constant (Ki) was greater than 1 µM.

Regarding `CCS(=O)(=O)c1ccc(CNC(=O)c2ccc3c(c2)nc(C(F)(F)F)n3Cc2nnc3n2CCC3)cc1` [I-86, 1-((6,7-dihydro-5H-pyrrolo[2,1-c][1,2,4]triazol-3-yl)methyl)-N-(4-(ethylsulfonyl)benzyl)-2-(trifluoromethyl)-1H-benzo[d]imidazole-5-carboxamide], the Ki is greater than 1 µM.

With `CS(=O)(=O)c1ccc([C@H](CO)NC(=O)c2ccc3c(c2)nc(C(F)(F)F)n3Cc2cccc3c2OC(F)(F)O3)nc1` [I-135, (R)-1-((2,2-difluorobenzo[d][1,3]dioxol-4-yl)methyl)-N-(2-hydroxy-1-(5-(methylsulfonyl)pyridin-2-yl)ethyl)-2-(trifluoromethyl)-1H-benzo[d]imidazole-5-carboxamide], the Ki fell in the range of 0.1 to 1 µM.

Turning to `CCS(=O)(=O)c1ccc(CNC(=O)c2ccc3c(c2)nc(C2CC2)n3Cc2ccn(CC(F)(F)F)n2)cc1` [I-114, 2-cyclopropyl-N-(4-(ethylsulfonyl)benzyl)-1-((1-(2,2,2-trifluoroethyl)-1H-pyrazol-3-yl)methyl)-1H-benzo[d]imidazole-5-carboxamide], the Ki is greater than 1 µM.
